In patent US4094899A, “Oxaprostaglandins” (Pfizer Inc., priority 1973, dated 1978):

Tests used:
guinea pig ileum = assay: spasmogenic effect on guinea pig ileum in vitro; details: Cavia porcellus, read-out: Guinea pig Ileum: threshold dose for spasmogenic effect
Text: (§1) These tests include, among others, a test for effect on isolated smooth muscle from guinea pig ileum and rat uterus, a test for effect on histamine induced bronchospasm in guinea pig, a test for effects on dog blood pressure, a test for induction of diarrhea in mice, and a test for the induction of abortion in early pregnant rats.
^(d) Threshold dose for spasmogenic effect on guinea pig ileum in […]

estrogenized rat uterus = assay: spasmogenic effect on estrogenized rat uterus in vitro; details: read-out: Rat Uterus: threshold dose for spasmogenic effect
Text: as §1
^(c) Threshold dose for spasmogenic effect on estrogenized rat uterus

[1] = target: norepinephrine stimulated lipolysis; assay: inhibition of norepinephrine stimulated lipolysis; details: read-out: K: inhibition constant for norepinephrine stimulated lipolysis
Text: ^(e) Inhibition constant for norepinephrine stimulated lipolysis.

[2] = system: histamine induced bronchospasm in the guinea pig; assay: histamine induced bronchospasm in the guinea pig (aerosol); assay type: in vivo; details: for Histamine Aerosol: per cent protection for histamine induced bronchospasm: 100 μg/ml aerosol dose, guinea pig
Experimental: as §1
^(b) Per cent protection by 100 μg/ml aerosol dose for histamine
induced bronchospasm in the guinea pig.

[3] = system: anesthetized dog blood pressure; assay: depressor effect on anesthetized dog blood pressure; assay type: in vivo; details: for Dog Blood Pressure: relative dose at which oxaprostaglandin derivative has similar action to PGE2 for depressor effect: anesthetized dog
Text: as §1
^(a) Relative dose at which oxaprostaglandin derivative has similar
action to PGE2 for depressor effect on anesthetized dog blood

[4] = physiological tests taken together (Table I; comparison with natural prostaglandin); details: in words; compared with natural prostaglandin; rat uterus vs guinea pig ileum
Text: as §1
(§2) On the basis of the difference seen in the rat uterus and guinea pig ileum tests with 19 -oxaprostaglandin E2, one would expect to have a reduction of the unpleasant gastrointestinal side effects which were encountered when natural PGE2 was employed as an abortion inducer (Lancet, 536, 1971).

mice = assay: induction of diarrhea in mice in vivo
Text: as §1, §2

early pregnant rat = assay: induction of abortion in early pregnant rats; assay type: in vivo
Text: as §1, §2

`CCOCC[C@H](O)/C=C/[C@@H]1[C@@H](C/C=C\CCCC(=O)O)[C@@H](O)C[C@H]1O` [18-oxa PGF2α, 9α,11α,15α-trihydroxy-18-oxa-cis-5-trans-13-prostadienoic acid] gave a minimal effective concentration (guinea pig ileum) of 0.1 to 0.3 µg/mL and a minimal effective concentration (estrogenized rat uterus) of 0.3 to 0.6 µg/mL.

With `CCOCCC[C@H](O)/C=C/[C@H]1[C@H](O)CC(=O)[C@@H]1C/C=C\CCCC(=O)O` [19-oxa-ω-homo-PGE2, 9-oxo-11α,15α-dihydroxy-19-oxa-cis-5-trans-13-w-homo-prostadienoic acid] the minimal effective concentration (guinea pig ileum) was 0.1 µg/mL, the Ki [1] was 4000 nM and the minimal effective concentration (estrogenized rat uterus) was 0.1 µg/mL. The “Histamine Aerosol: per cent protection for histamine induced bronchospasm” value (“Histamine Aerosol: per cent protection” for short) [2] was 38%, the “bronchodilator selectivity compared with natural PGE2” value ([2]; in words, from Table I) was “more selective bronchodilator than natural PGE2” and the “Dog Blood Pressure: relative dose at which oxaprostaglandin derivative has similar action to PGE2 for depressor effect” value (“Dog Blood Pressure: relative dose” for short) [3] was 4.

For `CCOCC[C@H](O)/C=C/[C@H]1[C@H](O)CC(=O)[C@@H]1C/C=C\CCCC(=O)O` [18-oxa PGE2, 9-oxo-11α,15α-dihydroxy-18-oxa-cis-5-trans-13-prostadienoic acid], the minimal effective concentration (guinea pig ileum) was 0.1 to 0.3 µg/mL, the minimal effective concentration (estrogenized rat uterus) was 0.1 to 0.3 µg/mL and the “Histamine Aerosol: per cent protection” value [2] was 3%. The “Dog Blood Pressure: relative dose” value [3] was 2 and the “selectivity with regard to blood pressure effects” value ([3]; in words, from Table I) was “particularly selective with regard to its blood pressure effects”.

In the case of `CCCCC[C@H](O)/C=C/[C@H]1[C@H](O)CC(=O)[C@@H]1C/C=C\CCCC(=O)O` [PGE2, reference compound], the minimal effective concentration (guinea pig ileum) is reported as 0.01 to 0.03 µg/mL, the Ki [1] is reported as 400 nM and the minimal effective concentration (estrogenized rat uterus) is reported as 0.01 to 0.03 µg/mL. For the same compound, the “Histamine Aerosol: per cent protection” value [2] was 75% and the “Dog Blood Pressure: relative dose” value [3] was 1.

`COCCC[C@H](O)/C=C/[C@@H]1[C@@H](C/C=C\CCCC(=O)O)[C@@H](O)C[C@H]1O` [19-oxa PGF2α, 9α,11α,15α-trihydroxy-19-oxa-cis-5-trans-13-prostadienoicacid] showed a minimal effective concentration (guinea pig ileum) of 0.1 to 0.5 µg/mL and a minimal effective concentration (estrogenized rat uterus) of 0.1 to 0.5 µg/mL.

With `CCOCCC[C@H](O)/C=C/[C@@H]1[C@@H](C/C=C\CCCC(=O)O)[C@@H](O)C[C@H]1O` [19-oxa-ω-homo-PGF2α, 9α,11α,15α-trihydroxy-19-oxa-cis-5-trans-13-ω-homoprostadienoic acid] the minimal effective concentration (guinea pig ileum) was ≥ 0.1 µg/mL and the minimal effective concentration (estrogenized rat uterus) was 0.06 to 0.3 µg/mL.

With `COCCC[C@H](O)/C=C/[C@H]1[C@H](O)CC(=O)[C@@H]1C/C=C\CCCC(=O)O` [19-oxa PGE2, 9-oxo-11α,15α-dihydroxy-19-oxa-cis-5-trans-13-prostadienoic acid] the minimal effective concentration (guinea pig ileum) was 0.1 to 0.5 µg/mL, the tissue selectivity [4] was “tissue selectivity, particularly 19-oxaprostaglandin E2” and the “effectiveness in inducing diarrhea relative to natural PGE2” value (mice) was 10%. The Ki [1] was 2500 nM, the minimal effective concentration (estrogenized rat uterus) was 0.05 to 0.1 µg/mL and the “effectiveness in inducing abortion compared with natural PGE2” value (early pregnant rat) was “as effective as natural PGE2”. For the same compound, the “Histamine Aerosol: per cent protection” value [2] was 19% and the “Dog Blood Pressure: relative dose” value [3] was 20.
